Data reported in patent US12544373B2, “Treatment of cancer, inflammatory diseases and autoimmune diseases” (Usher III Initiative, Inc., priority 2020, dated 2026).
Like-named read-outs stand apart in the source and are kept apart here.

Tests used:
Format in all cases: cell-based, human
[1] = tested on: PAXF 1657; test: CellTiter-Blue 2D monolayer assay (Example 1), pancreas; details: for Test/Control (%): 72 h
Description: Compound 85 was assessed in 10 human tumor cell lines (see Table 3) for anti-cancer activity in vitro using a CellTiter-Blue® based 2D monolayer assay.
CellTiter-Blue® Cell Viability Assay: Tumor cells were grown at 37° C. in a humidified atmosphere with 5% CO2 in RPMI medium, supplemented with 10% (v/v) fetal calf serum and 50 μg/ml gentamicin (140 μl/well). Cultures were incubated at 37° C. and 5% CO2 in a humidified atmosphere. After 24 hours, 10 μl of Compound 85 was added, and left on the cells for another 72 hours (incubation period). Compound 85 was tested at 5 concentrations (0.003 μM, 0.03 μM, 0.3 μM, 3 μM, and 30 μM) and serially diluted in DMSO, mixed with cell culture medium, and added to the assay plates by using a Tecan Freedom EVO 200 robotic platform. The DMSO concentration was kept constant at 0.3% yip across the assay plate. Every 96 well plate included six DMSO-treated control wells and Compound 85-treated wells in duplicate at 5 concentrations. Viability of cells was quantified using the CellTiter-Blue® cell viability assay (Promega G8081). After incubation of cells, the CellTiter-Blue® reagent was brought to ambient temperature. Next, 20 μl of CellTiter-Blue® reagent were added to each well. After incubation tier up to 4 hours, fluorescence (FU) was measured using the EnSpire® multimode plate reader (Perkin Elmer) ([…]).
Data Evaluation: Sigmoidal concentration-response curves were fitted to the data points (test-versus-control; T/C values) obtained for each tumor model using 4 parameter non-linear curve fit (Charles River DRS Datawarehouse Software). Drug effects are expressed in terms of the percentage of the fluorescence signal, obtained by comparison of the mean signal in the treated wells with the mean signal of the untreated controls (T/C-value [%]) (Table 4). IC50 and IC70 values were reported as relative and absolute IC50 and IC70 values (Table 5). The absolute IC50 and IC70 values reflect the concentration of Compound 85 that achieves T/C=50% and T/C=30%, respectively. The relative IC50 value is the concentration of Compound 85 that gives a response half way between the top and bottom plateau of the sigmoidal concentration-response curve (inflection point of the curve).

[2] = tested on: PRXF DU-145; test: CellTiter-Blue Cell Viability Assay (Example 2), prostate; details: for T/C %: 72 h
From the text: (§1) The CellTiter-Blue® Cell Viability Assay was used to assess the viability of cells from various cancer cell lines, in the presence or absence of Compound 85 (at different concentrations). This assay provides a homogeneous, fluorometric method for estimating the number of viable cells present in multi-well plates. Viable cells retain the ability to reduce resazurin to resorufin, which is highly fluorescent. […] The fluorescence produced is proportional to the number of viable cells. There is a linear relationship between cell number and fluorescence.
(§2) Cancer cells (see Table 6) were harvested from exponential phase cultures, counted and plated in 96 well flat-bottom microtiter plates, at a cell density 6,000-20,000 cells/well, depending on the cell line's growth rate. The culture medium was supplemented with 10% (v/v) foetal calf serum and 50 μg/mL gentamicin (140 μL/well). Cultures were incubated at 37° C. and 5% CO2 in a humidified atmosphere.
(§3) Compound 85 was serially diluted in DMSO, and five Compound 85 concentrations in half-log increments were used: 0.03 μM, 0.09 μM, 0.30 μM, 1.0 μM, and 3.0 μM. After 24 h, 10 μL of Compound 85 (dissolved in DMSO) or control (DMSO) medium were added, in duplicates, and left on the cells for another 72 h. Compound 85 solutions were added to the assay plates using a Tecan Freedom EVO 200 robotic platform. The DMSO concentration was kept constant at 0.3% v/v across the assay plate.
(§4) After incubation of up to 72 hours, fluorescence (FU) was measured using the EnSpire® multimode plate reader (Perkin Elmer) (excitation λ=570 nm, emission λ=600 nm).
(§5) Cancer cell lines used: Compound 85's anti-cancer effect was tested in 20 human cancer-cell lines representing nine cancer types (Table 6).
(§6) The percentage of viable cells in the presence of Compound 85 (Test condition, T), at different concentrations, are presented in Table 7 and expressed as a percentage of the number of viable cells in the presence of DMSO without Compound 85 (Control condition, C).
(§7) The relative IC50 is determined as the Compound 85 concentration giving a response halfway between the maximum cell viability signal (i.e., a 100% cell viability, no Compound 85 response) and the minimal viability signal (i.e. maximum cell viability inhibition achieved by Compound 85), in a sigmoidal concentration-effect curve.
(§8) The absolute IC50 is determined as the concentration that is associated with a T/C ratio of 50%.

[3] = tested on: PRXF PC-3; test: as above; details: for T/C %: 72 h
From the text: as §1, §2, §3, §4, §5, §6, §7, §8

[4] = tested on: SXFO Saos-2; test: CellTiter-Blue Cell Viability Assay (Example 2), osteosarcoma; details: for T/C %: 72 h
From the text: as §1, §2, §3, §4, §5, §6, §7, §8

[5] = tested on: SXFO 678; test: as above; details: for T/C %: 72 h
From the text: as §1, §2, §3, §4, §5, §6, §7, §8

[6] = tested on: PAXF 1657; test: CellTiter-Blue Cell Viability Assay (Example 2), pancreatic; details: for T/C %: 72 h
From the text: as §1, §2, §3, §4, §5, §6, §7, §8

## CC(C)(O)Cn1nc(-c2ccccc2)c2c(Cl)c(-c3ccccc3)nnc21 [Compound 85]
[1]
  Rel. IC70: 2043 nM
[1]; 0.003 μM
  Test/Control (%): 100%
[1]; 0.03 μM
  Test/Control (%): 100%
[1]; 0.3 μM
  Test/Control (%): 100%
[1]; 3 μM
  Test/Control (%): 3%
[1]; 30 μM
  Test/Control (%): 1%
[1]; T/C=30%
  Abs. IC70: 2055 nM
[1]; T/C=50%, read-out: Abs. IC50
  IC50: 1850 nM
[1]; bottom plateau of curve
  Bot. (%): 1%
[1]; read-out: Rel. IC50
  IC50: 1840 nM
[1]; top plateau of curve
  Top (%): 100%
[2]
  Absolute IC70: 1528 nM
  Relative IC70: 1376 nM
[2]; 0.03 μM
  T/C %: 100%
[2]; 0.095 μM
  T/C %: 110%
[2]; 0.3 μM
  T/C %: 102%
[2]; 0.95 μM
  T/C %: 11%
[2]; 3.0 μM
  T/C %: 6%
[2]; read-out: Absolute IC50
  IC50: 1090 nM
[2]; read-out: Relative IC50
  IC50: 1010 nM
[3]
  Absolute IC70: 1349 nM
  Relative IC70: 1326 nM
[3]; 0.03 μM
  T/C %: 104%
[3]; 0.095 μM
  T/C %: 103%
[3]; 0.3 μM
  T/C %: 103%
[3]; 0.95 μM
  T/C %: 2%
[3]; 3.0 μM
  T/C %: 1%
[3]; read-out: Absolute IC50
  IC50: 1100 nM
[3]; read-out: Relative IC50
  IC50: 1080 nM
[4]
  Absolute IC70: 747 nM
  Relative IC70: 750 nM
[4]; 0.03 μM
  T/C %: 97%
[4]; 0.095 μM
  T/C %: 93%
[4]; 0.3 μM
  T/C %: 99%
[4]; 0.95 μM
  T/C %: 1%
[4]; 3.0 μM
  T/C %: 0%
[4]; read-out: Absolute IC50
  IC50: 709 nM
[4]; read-out: Relative IC50
  IC50: 712 nM
[5]
  Absolute IC70: 532 nM
  Relative IC70: 531 nM
[5]; 0.03 μM
  T/C %: 101%
[5]; 0.095 μM
  T/C %: 97%
[5]; 0.3 μM
  T/C %: 91%
[5]; 0.95 μM
  T/C %: 2%
[5]; 3.0 μM
  T/C %: 1%
[5]; read-out: Absolute IC50
  IC50: 458 nM
[5]; read-out: Relative IC50
  IC50: 458 nM
[6]
  Absolute IC70: 1166 nM
  Relative IC70: 1169 nM
[6]; 0.03 μM
  T/C %: 97%
[6]; 0.095 μM
  T/C %: 94%
[6]; 0.3 μM
  T/C %: 97%
[6]; 0.95 μM
  T/C %: 66%
[6]; 3.0 μM
  T/C %: 1%
[6]; read-out: Absolute IC50
  IC50: 1040 nM
[6]; read-out: Relative IC50
  IC50: 1050 nM
